This is an account of results in US10034738B2, “Cardiac tissue constructs and methods of fabrication thereof” (THE GOVERNING COUNCIL OF THE UNIVERSITY OF TORONTO, priority 2012, dated 2018).

The subject of assay [1] is cardiac microwire. Kind of assay: Optical mapping of transmembrane action potentials of cardiac microwire (voltage-sensitive dye). The class given is cell-based, human. The settings on record: relative to the baseline. The procedure:
(§1) Using drugs of known effects, the cardiac microwire was perturbed and optically mapped their response (transmembrane AP and intracellular calcium transient) using voltage- and calcium-sensitive dyes, respectively.
For optical measurements, microtissues were stained with […] of Di-4-ANEPPS (Invitrogen, Carlsbad Calif.) voltage-sensitive dye for 20 minutes, followed by 3 washouts with fresh warm Tyrode's solution (Sigma-Aldrich) adjusted to pH 7.4. The temperature was kept constant at 37° C. using a block incubator. Dye fluorescence was recorded using a microscope mapping system (Ultima, Scimedia, Tokyo Japan). The system included a CMOS camera with a 1 cm sensor (100×100 pixel) attached to a custom-built microscope using PLAN APO objective and condensing lenses (Leica Microsystems GmbH, Wetzlar Germany), giving a magnification of 1.5×. The spatial resolution was 63 μm/pixel. The fluorescence was excited using a Xenon light source (Moritek Corp. Japan) and a 530 nm green filter (Semrock, Rochester N.Y.) and the emission signal was long pass filtered using a 610 nm red filter. Tissue constructs were point stimulated at 1000-ms cycle length using a bipolar electrode made with 2 fine silver wires (AWG#32) inserted in a large stainless steel needle mounted on a micromanipulator. Spontaneous tissue beating was also recorded, in addition to responses to frequency sweep from 1 to 5 Hz. Local activation times were measured at the peak of dF/dT for each pixel. Activation maps were constructed for a selected beat.
Conduction velocity was calculated at each location using activation times of 9 neighbouring sites. Conduction velocity values from all sites were used to calculate the average conduction velocity across the construct surface; minimum and maximum values were also noted. Phase contrast images of microtissue surfaces were taken prior to optical mapping, to correlate tissue architecture geometry with conduction velocity. Concentrations of drugs used applied as indicated. […]

In assay [2] the test system is cardiac microwire. Kind of assay: Optical mapping of intracellular calcium transients of cardiac microwire (calcium-sensitive dye). The class given is cell-based, human. The procedure:
as §1
Conduction velocity was calculated at each location using activation times of 9 neighbouring sites. Conduction velocity values from all sites were used to calculate the average conduction velocity across the construct surface; minimum and maximum values were also noted. Phase contrast images of microtissue surfaces were taken prior to optical mapping, to correlate tissue architecture geometry with conduction velocity. Concentrations of drugs used applied as indicated. Stock solutions were prepared as recommended by vendors: Epinephrine at 1:1000 (Hospira), Lidocaine at 1:1000 (Hospira), and Verapamil at 1:1000 (Sandoz).
Background: Calcium flux is commonly read through the fluorescence of an indicator in the cells.

Assay [3] relates to cardiac tissue constructs. Conditions: relative to no-drug control, 15 minutes of incubation at 37 degrees Celsius, increasing concentrations.
Protocol: In the present example, microwells with ramped support structures having retaining structures provided thereon, as described above, were seeded at 0.1×10^6 cells per tissue in 2.0 mg/mL Collagen 1. Tissues remodeled over two weeks along with contractile force as measured using the microcantilevers in the system. After two weeks, tissues were introduced with drugs in 100% DMSO vehicle. Final concentrations applied to tissues were ensured to be less than 0.01% DMSO to ensure non-toxic effects. Concentrations were mixed separately in a 96 well plate and applied to the tissues. Measurements were taken after 15 minutes of incubation with the drug at 37 degrees Celsius.
Videos of approximately 10 seconds were recorded and analyzed offline using ImageJ for each condition. […] Contractile force assays were conducted after the contractile force was plateaued to ensure no changes in contractile force due to tissue remodeling.
Assay [4] relates to cardiac tissue constructs. In words: Preliminary growth factor screen, excitation threshold (ET) of cardiac tissue constructs. The class given is cell-based. The settings on record: compared to the control condition. The procedure:
Tissue function was established by measuring excitation threshold (ET), the minimum voltage required to pace the tissue simultaneously, and maximum capture rate (MCR), the maximum stimulation rate at which the construct can be induced to beat simultaneously, at 7 days after cell seeding. Tissue constructs or cardiomyocyte aggregates were individually placed between a pair of carbon electrodes in stimulation chambers (autoclaved before use). ET (V/cm) was measured by stimulating the tissue with square pulses of 2 ms pulse width at a frequency of 1 or 2 Hz and gradually increasing the output voltage of the stimulator until >80% of the tissue was beating synchronously with the stimulator output. MCR was measured by setting the output voltage at 12 V, and increasing frequency until >80% of the tissue was no longer synchronously beating with the driving signal. […]
A preliminary screen was also performed in order to determine the maturation effect of growth factors. […] The challenge with higher level functional readouts with in vitro models is that further analyses need to be done to determine the mode of action. In order to determine the mechanism of IGF1 and HRG, other functional parameters as well as molecular readouts over a time course will be investigated.

Entries after “also recorded” stand apart in the source; their conditions may differ.

`CNC[C@H](O)c1ccc(O)c(O)c1` [Epinephrine]: the AP activation rate result in assay [1] (Epinephrine 0.1 μg/mL) is “increased the AP activation rate relative to the baseline”; in assay [1] (Epinephrine 0.1 μg/mL, listed as epinephrine), “increased activation rate”. Also, the “rate of calcium transients” value in assay [2] (Epinephrine 0.1 μg/mL supplemented after Verapamil 0.25 μg/mL) was “increased the rate of calcium transients”.
In the case of `CCN(CC)CC(=O)Nc1c(C)cccc1C` [Lidocaine], in assay [1] (increasing concentrations of Lidocaine, 2 μg/mL and 4 μg/mL), the AP activation rate entry was “reduced and nearly abolished activation; also recorded: decreased the activation rate”.
Take `CC(C)(C)c1ccc(C(O)CCCN2CCC(C(O)(c3ccccc3)c3ccccc3)CC2)cc1` (stereo not shown) [Terfenadine]: the relative contractile force result in assay [3] is on record as “reduce the contractile force (relative to control) with increasing concentrations”.
As for `COc1ccc(CCN(C)CCCC(C#N)(c2ccc(OC)c(OC)c2)C(C)C)cc1OC` (stereo not shown) [Verapamil], the “amplitude of calcium waves” value in assay [2] (Verapamil 0.25 μg/mL, relative to the baseline) is given as “reduced the amplitude of calcium waves”.
Take “IGF1: one of seven growth factors in a preliminary maturation screen”: in assay [4], the “excitation threshold (ET)” value is “reduced ET compared to the control condition”.
